Reference: PubChem BioAssay (NCI)
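Tested at 5 concentrations; 48 h exposure; 96-well plates; endpoints linearly interpolated, else capped at highest concentration. GI50 = concentration required for 50% inhibition of growth. TGI denotes the concentration required for complete inhibition of growth.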

Assays:
Test in all cases: growth of human tumour cells (NCI), 48 h
A549 NSCLC = system: A549 NSCLC
ACHN renal = system: ACHN renal
HL-60(TB) leukemia = system: HL-60(TB) leukemia
NCI-H23 lung = system: NCI-H23 lung
OVCAR-4 ovarian = system: OVCAR-4 ovarian
RXF 393 renal = system: RXF 393 renal
SF-268 CNS = system: SF-268 CNS
U251 CNS = system: U251 CNS
SNB-75 CNS = system: SNB-75 CNS
HS 578T breast = system: HS 578T breast

| Compound | TGI (A549 NSCLC) [µM] | TGI (ACHN renal) [µM] | TGI (HL-60(TB) leukemia) [µM] | TGI (NCI-H23 lung) [µM] | TGI (OVCAR-4 ovarian) [µM] | TGI (RXF 393 renal) [µM] | TGI (SF-268 CNS) [µM] | TGI (U251 CNS) [µM] | GI50 (A549 NSCLC) [µM] | GI50 (ACHN renal) [µM] | GI50 (HL-60(TB) leukemia) [µM] | GI50 (NCI-H23 lung) [µM] | GI50 (OVCAR-4 ovarian) [µM] | GI50 (RXF 393 renal) [µM] | GI50 (SF-268 CNS) [µM] | GI50 (SNB-75 CNS) [µM] | TGI (SNB-75 CNS) [µM] | GI50 (U251 CNS) [µM] | TGI (HS 578T breast) [µM] | GI50 (HS 578T breast) [µM] |
| --- | --- | --- | --- | --- | --- | --- | --- | --- | --- | --- | --- | --- | --- | --- | --- | --- | --- | --- | --- | --- |
| Cc1ccccc1NC(=O)c1cc(-c2ccc([N+](=O)[O-])cc2)nc(=S)[nH]1 | > 100 | > 100 | > 100 | > 100 | > 100 | > 100 | > 100 | > 100 |  |  |  |  |  |  |  |  |  |  |  |  |
| CCCCCCCCOC(=O)CC[C@@H](C)[C@H]1CC[C@H]2[C@@H]3[C@H](OC(=O)CCN)C[C@@H]4C[C@H](OC(=O)CCN)CC[C@]4(C)[C@H]3C[C@H](OC(=O)CCN)[C@]12C | 27.1 | 32.2 | 11.3 | 29.9 | 28.5 | 29 | 9.12 | 3.61 | 10.9 | 15.9 | 3.32 | 10 | 6.31 | 9.66 | 3.34 | 3.32 | 13.6 | 1.95 |  |  |
| CCC[CH2][Sn]([Cl])([Cl])[CH2]CCC | 8.25 | 1.62 | 1.02 | 2.21 | 2.78 | 0.49 | 1.77 | 1.62 | 2.65 | 0.449 | 0.275 | 0.62 | 1.4 | 0.232 | 0.457 | 0.894 | 2.28 | 0.472 |  |  |
| CC1=Nc2c(ccc3c2C(=O)c2ccccc2C3=O)NC(c2cccc3c2CCC3)C1 (stereo unspecified) | > 100 | > 100 | > 100 | > 100 | > 100 | > 100 | > 100 | > 100 |  |  |  |  |  |  |  |  | > 100 |  |  |  |
| CC1=C[C@H]2c3c([nH]c4ccccc34)C(c3c[nH]c4ccccc34)[C@H]2CC1 (stereo partly specified) | 26.4 | 25 | 17.6 |  |  | 4.19 |  | 16.3 |  |  |  |  |  |  |  |  | 19 |  |  |  |
| O=C(Cc1nc2ccccc2c(=O)n1-c1ccccc1Cl)c1ccncc1 | > 100 | > 100 | > 100 | > 100 | > 100 | > 100 | > 100 | > 100 |  |  |  |  |  |  |  |  | 71.7 |  |  |  |
| COC12CCC(=O)C=C1c1ccccc1N2C(C)=O (stereo unspecified) | > 100 | > 100 | > 100 | > 100 | > 100 | > 100 |  | > 100 |  |  |  |  |  |  |  |  | > 100 |  |  |  |
| COC(=O)C1C(O)CCC2CN3CCc4c([nH]c5ccccc45)C3CC21 (stereo unspecified) | > 100 | > 100 |  | > 100 | > 100 | > 100 | > 100 | > 100 |  | > 100 |  |  | > 100 |  |  |  | > 100 |  | > 100 |  |
| Cc1nn[n-]n1.N.N.N.N.N.[Cl-].[Co+3] | > 100 | > 100 | > 100 | > 100 | > 100 | > 100 | > 100 | > 100 | > 100 | > 100 | > 100 | > 100 | > 100 | > 100 | > 100 | > 100 | > 100 | > 100 |  |  |
| CC1=C(C(=O)CC(=O)C(=O)Nc2cc(C)ccc2C)Sc2ccccc2N1 | > 100 | > 100 | > 100 | > 100 | > 100 | > 100 | > 100 | > 100 |  |  |  |  |  |  |  |  |  |  |  |  |
| CN(C)CCNc1ccc(CO)c2sc3ccc(O)cc3c(=O)c12 | 6.77 | 6.75 | 6.13 | 4.14 | 13.1 | 4.44 | 8.82 | 7.46 |  |  |  |  |  |  |  |  | 9.62 |  |  |  |
| CCCNC(=O)C1C(=O)C(=O)N(CCC)C1=O (stereo unspecified) | > 100 | > 100 |  | > 100 | > 100 | > 100 | > 100 | > 100 |  |  |  |  |  |  |  |  | > 100 |  |  |  |
| CC1/C=C/[C@@]2(C)CCC(C(C)(C)O)C2C(O)C[C@](C)(O)/C=C/C1 (stereo partly specified) | > 100 | > 100 | > 100 | > 100 | > 100 | > 100 | > 100 | > 100 |  |  |  |  |  |  |  |  | > 100 |  |  |  |
| CC(=O)N/N=C1\CC(C)(C)C2CCC1C2 (stereo unspecified) | > 100 | > 100 | > 100 | > 100 | > 100 | > 100 | > 100 | > 100 |  |  |  |  |  |  |  |  | > 100 |  |  |  |
| CCC(=O)c1c(NOC2OCC(OC(C)=O)C(OC(C)=O)C2OC(C)=O)nc(OC)n(C)c1=O (stereo unspecified) | > 100 | > 100 | > 100 | > 100 | > 100 | > 100 | > 100 | > 100 |  |  |  |  |  |  |  |  | > 100 |  |  |  |
| N#Cc1ccccc1C(Cl)(Cl)c1cnccn1 | > 100 | > 100 | 70.2 | > 100 | > 100 | > 100 | > 100 | > 100 |  |  |  |  |  |  |  |  |  |  |  |  |

| Compound | TGI (A549 NSCLC) [µM] | TGI (ACHN renal) [µM] | TGI (HL-60(TB) leukemia) [µM] | TGI (NCI-H23 lung) [µM] | TGI (OVCAR-4 ovarian) [µM] | TGI (RXF 393 renal) [µM] | TGI (SF-268 CNS) [µM] | TGI (U251 CNS) [µM] | GI50 (A549 NSCLC) [µM] | GI50 (ACHN renal) [µM] | GI50 (HL-60(TB) leukemia) [µM] | GI50 (NCI-H23 lung) [µM] | GI50 (OVCAR-4 ovarian) [µM] | GI50 (RXF 393 renal) [µM] | GI50 (SF-268 CNS) [µM] | GI50 (SNB-75 CNS) [µM] | TGI (SNB-75 CNS) [µM] | GI50 (U251 CNS) [µM] | TGI (HS 578T breast) [µM] | GI50 (HS 578T breast) [µM] |
| --- | --- | --- | --- | --- | --- | --- | --- | --- | --- | --- | --- | --- | --- | --- | --- | --- | --- | --- | --- | --- |
| COC/C=C\COC | > 100 | > 100 | > 100 |  | > 100 | > 100 |  | > 100 |  |  |  |  |  |  |  |  | > 100 |  |  |  |
| COc1cc2c(c(OC)c1OC)-c1ncc3c(OC)c(OC)c(OC)cc3c1C2 | > 100 | > 100 |  |  | > 100 | 83.2 |  | > 100 | 27.7 | 31.2 |  |  | 49.6 | 25.2 |  | > 100 | > 100 | 36.9 | 67.3 | 29.9 |
| C=C1C(=O)OC2C/C(C)=C/CC/C(C)=C/CCC3(COC(C)=O)OC3CC12 (stereo unspecified) | 32.2 | 27.5 | 5.85 | 26 | 46.5 | 18 | 21.7 | 23.3 |  |  |  |  |  |  |  |  | 27.6 |  |  |  |
| CCc1ccc(NC(=O)NC(=O)c2ccccc2[N+](=O)[O-])cc1Oc1ncc(Cl)cn1 | > 100 | > 100 | 0.0247 | > 100 | > 100 | 73.4 | > 16.9 | > 100 |  |  |  |  |  |  |  |  |  |  |  |  |
| Cc1ccc(NC(=O)CCc2nc(N)nc(N)c2-c2ccccc2)cc1C | > 100 | > 100 | > 100 | > 100 | > 100 |  | > 100 | > 100 |  |  |  |  |  |  |  |  | > 100 |  |  |  |
| COc1ccc(N=NC(C(=O)c2ccccc2)C(=O)c2ccccc2)cc1 | 75 | 86.1 | 32.7 | 65.3 | > 100 |  | > 100 | > 100 |  |  |  |  |  |  |  |  | 74.8 |  |  |  |
| NS(=O)(=O)c1ccc(-n2nc3c(c2-c2ccc(Cl)cc2)Cc2ccccc2-3)cc1 | > 100 | 34.6 |  | 19.6 | 30.3 | 34.4 | 50.4 | 37.3 | 37.8 | 19.8 |  | 3.27 | 15 | 17 | 22.4 | 14.6 | 30.5 | 19.5 | 33 | 12.1 |
| C#Cc1cccc(N2C(=O)c3c(c(-c4ccccc4)c(-c4ccc(Cc5ccc(-c6c(-c7ccccc7)c7c(c(-c8ccccc8)c6-c6ccccc6)C(=O)N(c6cccc(C#C)c6)C7=O)cc5)cc4)c(-c4ccccc4)c3-c3ccccc3)C2=O)c1 | > 100 | > 100 | > 100 | > 100 | > 100 | > 100 | > 100 | > 100 |  |  |  |  |  |  |  |  | 79.9 |  |  |  |
| COc1cc(C2SCCCCCCCCCCSC(c3ccc(O)c(OC)c3)SCCCCCCCCCCS2)ccc1O (stereo unspecified) | > 100 | > 100 |  | > 100 | > 100 | > 100 | > 100 | > 100 |  |  |  |  |  |  |  |  | > 100 |  |  |  |
| O=c1/c(=C/c2ccccc2[N+](=O)[O-])sc2nc3ccccc3n12 | > 46.4 | > 46.4 | > 46.4 | > 46.4 | > 46.4 | 41.9 | > 46.4 | 41.9 |  |  |  |  |  |  |  |  | 33.5 |  |  |  |
| COc1ccc(NC(=O)CC2SC(=Nc3ccccc3C)NC2=O)c([N+](=O)[O-])c1 (stereo unspecified) | > 100 | > 100 | > 100 | > 100 | > 100 |  | > 100 | > 100 |  |  |  |  |  |  |  |  | > 100 |  |  |  |
| COc1ccc(OC)c(NC(=O)CCC/C(CC(=O)c2ccc(O)c(OC)c2)=N\Nc2nnc(C)n2N)c1 | > 100 | > 100 | > 100 | > 100 | > 100 |  | > 100 | > 100 |  |  |  |  |  |  |  |  | > 100 |  |  |  |
| C/C=C(/I)CBr | 66.7 | 45.5 | 20.5 | 31.4 | 49.3 | 31.2 | 74.5 |  |  |  |  |  |  |  |  |  |  |  |  |  |
| COc1ccc(NC(=O)/C(=C/c2ccccc2)C(C)=O)cc1 | 54.2 | 42.2 | 17.7 |  | 24.6 |  | 34.3 | 29.4 |  |  |  |  |  |  |  |  | 21 |  |  |  |
| CCNC(=O)COc1ccc(Br)cc1Br | > 100 | > 100 | > 100 | > 100 | > 100 | > 100 | > 100 | > 100 |  |  |  |  |  |  |  |  | > 100 |  |  |  |
| CC(Oc1ccc2c(-c3ccccc3)cc(=O)oc2c1)C(=O)O (stereo unspecified) | > 100 | > 100 | > 100 | > 100 | > 100 | > 100 | > 100 | > 100 |  |  |  |  |  |  |  |  | > 100 |  |  |  |
